According to US20080027087A1 (AMPLA Pharmaceuticals, Inc., priority 2006, published 2008):

Legend:
CB1 receptor [1] = target: T1, CB1 receptor (Homo sapiens, UniProt P21554); experiment: functional activity versus the CB1 receptor
[2] = acute administration: wet mash intake, food intake and body weight in lean male C57BL/6J mice; assay type: in vivo; conditions: 10 mg/kg orally, one-way ANOVA
[3] = body weight of diet-induced obese male C57BL/6J mice, repeated oral administration for 28 days; assay type: in vivo; conditions: for reduction of body weight: 28 days dosing, diet-induced obese mice
Protocol: Sibutramine, which is currently used clinically, and rimonabant, which has recently received regulatory approval for the management of obesity were used as reference compounds.
Sixty-five C57BL/6J mice (7-8 weeks of age) were ordered from Charles River, Margate, Kent. Mice were group housed in polypropylene cages with free access to a high fat diet (D12451 45% of Kcal derived from fat; Research Diets, N.J., USA) and tap water at all times. Animals were maintained at 21±4° C. and 55±20% humidity on a normal phase 12 h light-dark cycle (lights on 04:30 h)
Animals were exposed to the high fat diet for 16 weeks. During this time body weight was recorded weekly. At the end of 14 weeks animals were singly housed in polypropylene cages for a further two week period (weeks 14-16) and placed on reverse phase lighting (lights off for 8 h from 9.30-17.30 h) during which time the room was illuminated by red light. Animals were dosed with vehicle orally throughout the baseline period. Body weight and food and water intake was recorded daily. Towards the end of the baseline period animals were allocated to one of seven groups (see table 2 below). Upon completion of the baseline period, mice were dosed for 28 days with vehicle or test drug as described below.
Body weight and food and water intake were recorded daily. Following drug administration the animals were examined and any overt behaviour was recorded. For all dosing, the morning session was timed such that approximately half the mice were dosed at the time of lights out (09:30).
The test compounds were dissolved in 1% methylcellulose. […] Drug doses were expressed as free base.
Resulting body weights, food intake and water intake were expressed as mean values ±SEM, and the SEMs are calculated from residuals of the statistical model. Body weight data was analysed by ANCOVA with Day 1 as covariate followed by appropriate comparisons (two-tailed) to determine significant differences from the control group. […] Daily food and water intake data was analysed by ANOVA.

CB1 receptor [4] = target: T1, CB1 receptor; experiment: competition ligand binding assay, CHO-k1 cell membranes; design: expressed in transfected cells; host or cells: CHO-k1 cell membranes; conditions: 0.75 nM radioligand, FIG. 6
Protocol: (§1) Competition ligand binding assays were performed with the non-selective cannabinoid receptor agonist ([^3H]CP 55,940) (0.75 nM) in the binding buffer containing 50 mM Tris-HCl, pH 7.4, 3 mM MgCl2, 1 mM EDTA, 0.2% BSA using CHO-k1 cell membranes stably expressing human CB1 receptors or mouse brain membrane preparations in 96-well plate format. The receptor membranes (10 μg/well) were pre-incubated with different concentrations of tested compounds in the binding buffer at room temperature for 30 min prior to addition of 0.75 nM [^3H]CP 55,940 in a final volume of 100 μl. The binding was carried out at room temperature for another 2 h. To determine the non-specific binding, experiments were also performed in the presence of 10 μM unlabeled CP 55,940. Binding was terminated by addition of cold binding buffer and filtrated on Whatman GF/B glass-fiber filters using a sampling manifold. The filters were washed 6 times with cold binding buffer and air-dried overnight. The radioactivity was quantitated on a TopCounter (PerkinElmer) after adding scintillation fluid. Specific binding was defined as the difference between the binding in the presence and absence of 10 μM unlabeled CP 55, 940.

CB1 receptor [5] = target: T1, CB1 receptor; experiment: [35S]GTPγS binding assay on CHO-k1 cell membranes; assay type: biochemical; design: expressed in transfected cells; host or cells: CHO-k1 cell membranes
Protocol: [^35S]GTPγS binding assays were performed with CHO-k1 cell membranes stably expressing human CB1 receptors in 96-well ScintiPlate (PerkinElmer). The membranes (12.5 μg/well) were preincubated with compound 7 in the binding buffer (50 mM Tris-HCl, pH 7.4, 100 mM NaCl, 3 mM MgCl2, 0.2 mM EDTA, 0.2% BSA and 10 μM GDP) at 30° C. for 30 min, then added various concentrations of agonists (WIN 55212-2 or CP 55,940) and [^35S]GTPγS (0.2 nM) in a final volume of 200 μl. Reactions were carried out at 30° C. for 60 min, followed by centrifugation of plate at […] for 15 min. After removing supernatant, the radioactivity was quantitated on a TopCounter.

CB2 receptor = target: T2, CB2 receptor (Homo sapiens, UniProt P34972); experiment: Ca2+i response to 2-AG in CB2 receptor bearing cells, dose-response with or without compound; assay type: cell-based; conditions: 2-AG with or without compound, FIG. 2
T2 construct: host or cells: CB2 receptor bearing cells (host not described)

[6] = target: T3, Human Cannabinoid 1 (CB1) receptor (Homo sapiens, UniProt P21554); experiment: Ca2+i response to 2-AG in CB1 cells (Indo-1, DSIS flow cytometry), dose-response with or without compound; assay type: cell-based; conditions: 2-AG with or without compound, FIG. 2
T3 construct: expressed in transfected cells; host or cells: CHO cells stably expressing GqΔGi chimera
From the text: cDNA for the G protein GqΔGi chimera was generated by PCR and inserted into the polylinker region of the pcDNA3/hygro+ vector (Invitrogen). Stable expression of GqΔGi chimera protein in CHO cell line was generated under hygromycin selection. Human Cannabinoid 1 (CB1) cDNA was inserted into the polylinker region of the pcDNA3.1/(+) vector (Invitrogen) and DNA was introduced into the GqΔGi/CHO cell line by Lipofectamine reagent (Invitrogen). […]
Cell line optimization was done by a proprietary method using our novel automated Direct Sample Injection System (DSIS, ‘Direct mixing and injection for high throughput fluidic systems’ Patent Application Number 20050249635) in conjunction with response. Intracellular Ca^2+ (Ca^2+i) levels were measured with Ca^2+ chelating fluorescent probes. […]
The probe-loaded CB1 and Control cell mixture was placed in the Cell Suspension System on the DSIS where they were continuously rocked to keep them in a suspended state. […] The DSIS software, NVS Sampler, recorded a timing file and the CyAn software, Summit, recorded a data file. These two files were then compiled and analyzed by our proprietary software, NVS Analyzer, to determine the percent of cells that responded to each concentration. The data was transferred to GraphPAD Prism for a non-linear regression curve fit that determined the EC50. […]

CB1 receptor [7] = target: T1, CB1 receptor; experiment: dissociation kinetics assay with [3H]CP 55,940 on CHO-k1 cell membranes; assay type: binding; design: expressed in transfected cells; host or cells: CHO-k1 cell membranes; conditions: 0.75 nM [3H]CP 55,940, room temperature, FIG. 3
Protocol: Dissociation kinetics assays were performed with the non-selective cannabinoid receptor agonist ([^3H]CP 55,940) (0.75 nM) in the binding buffer containing 50 mM Tris-HCl, pH 7.4, 3 mM MgCl2, 1 mM EDTA, 0.2% BSA using CHO-k1 cell membranes stably expressing human CB1 receptors in 96-well plate format. The CBI receptor membranes (10 μg/well) were incubated with 0.75 nM [^3H]CP 55,940 in 100 μl binding buffer at room temperature for 2 h. Dissociation was initiated with addition of 100 μl unlabeled CP 55,940 (10 μM) in binding buffer in the absence or presence of different concentrations of compounds (compound 7). Dissociation was carried out at room temperature for indicated time. To determine the non-specific binding, experiments were also performed in the presence of 10 μM unlabeled CP 55,940. Binding was terminated by addition of cold binding buffer and filtrated on Whatman GF/B glass-fiber filters using a sampling manifold. The filters were washed 6 times with cold binding buffer and air-dried overnight. The radioactivity was quantitated on a TopCounter (PerkinElmer) after adding scintillation fluid. Specific binding was defined as the difference between the binding in the presence and absence of 10 μM unlabeled CP 55,940.

[8] = target: T4, mouse CB1 (mouse brain membrane) (Mus musculus, UniProt P47746); experiment: competition ligand binding assay, mouse brain membrane preparations
T4 construct: human CB1 receptors or mouse brain membrane preparations in 96-well plate format; from tissue; host or cells: mouse brain membrane preparations
Protocol: as §1

T4 sequence (P47746 whole entry): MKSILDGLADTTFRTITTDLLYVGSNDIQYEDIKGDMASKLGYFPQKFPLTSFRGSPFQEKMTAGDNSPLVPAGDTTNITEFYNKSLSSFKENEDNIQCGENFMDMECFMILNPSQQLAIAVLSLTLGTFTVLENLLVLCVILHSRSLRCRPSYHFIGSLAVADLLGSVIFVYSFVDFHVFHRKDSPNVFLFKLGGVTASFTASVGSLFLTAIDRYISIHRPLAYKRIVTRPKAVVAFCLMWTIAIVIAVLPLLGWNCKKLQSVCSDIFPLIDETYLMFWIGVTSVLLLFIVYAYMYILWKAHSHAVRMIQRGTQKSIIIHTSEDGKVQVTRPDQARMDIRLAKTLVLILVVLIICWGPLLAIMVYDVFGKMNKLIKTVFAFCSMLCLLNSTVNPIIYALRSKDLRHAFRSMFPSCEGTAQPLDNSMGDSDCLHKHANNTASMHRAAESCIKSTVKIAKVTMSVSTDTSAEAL
T1 sequence (P21554 whole entry): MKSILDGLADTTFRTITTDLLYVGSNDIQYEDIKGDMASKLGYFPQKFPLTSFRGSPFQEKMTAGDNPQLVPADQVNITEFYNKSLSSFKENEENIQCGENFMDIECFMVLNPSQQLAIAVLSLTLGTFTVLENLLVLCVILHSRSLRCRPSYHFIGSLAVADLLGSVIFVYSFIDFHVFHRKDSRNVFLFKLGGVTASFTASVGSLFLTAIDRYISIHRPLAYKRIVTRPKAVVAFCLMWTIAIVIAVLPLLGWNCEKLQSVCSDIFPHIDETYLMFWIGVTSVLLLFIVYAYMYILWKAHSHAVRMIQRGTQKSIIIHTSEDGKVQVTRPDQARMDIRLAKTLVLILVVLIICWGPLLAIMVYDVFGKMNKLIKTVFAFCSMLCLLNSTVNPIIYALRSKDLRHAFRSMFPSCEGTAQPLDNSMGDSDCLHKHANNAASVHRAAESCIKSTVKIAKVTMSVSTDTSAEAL
T2 sequence (P34972 whole entry): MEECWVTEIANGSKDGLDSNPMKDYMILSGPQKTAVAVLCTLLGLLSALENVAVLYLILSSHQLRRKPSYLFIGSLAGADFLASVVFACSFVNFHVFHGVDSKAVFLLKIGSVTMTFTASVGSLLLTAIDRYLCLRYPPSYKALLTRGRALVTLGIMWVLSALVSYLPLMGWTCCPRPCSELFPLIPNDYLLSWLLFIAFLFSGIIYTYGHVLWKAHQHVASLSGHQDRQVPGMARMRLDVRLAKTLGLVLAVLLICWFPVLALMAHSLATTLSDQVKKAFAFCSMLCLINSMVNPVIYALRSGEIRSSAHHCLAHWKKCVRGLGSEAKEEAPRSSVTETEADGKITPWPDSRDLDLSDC
T3 sequence (P21554 whole entry): as the sequence (P21554 whole entry) above

## CNCC[C@@H](Oc1ccc(C(F)(F)F)cc1)c1ccccc1 [(R)-fluoxetine]
CB1 receptor [1]
  functional activity versus the CB1 receptor: antagonist

## Cc1c(C(=O)NN2CCCCC2)nn(-c2ccc(Cl)cc2Cl)c1-c1ccc(Cl)cc1 [rimonabant]
[2]; FIG. 10
  24 hour body weight change, difference versus vehicle: No significant differences
[2]; FIG. 15
  daily food intake, difference versus vehicle: No significant differences
[2]; FIG. 16
  body weight, difference versus vehicle: No significant differences
[3]; 10 mg/kg po
  reduction of body weight: 15%
[3]; day 29, po, Dunnett's test p<0.001, FIG. 8
  weight reduction as compared to vehicle, significance: statistically significant weight reduction

## CC(C)CC(N(C)C)C1(c2ccc(Cl)cc2)CCC1 (stereo not drawn) [sibutramine]
[3]; 20 mg/kg po
  reduction of body weight: 2%

## CNCC[C@H](Oc1ccc(C(F)(F)F)cc1)c1ccccc1 [(S)-Fluoxetine]
CB1 receptor [1]
  functional activity versus the CB1 receptor: inverse agonist

## NCCC(Oc1ccc(C(F)(F)F)cc1)c1ccccc1 (racemic) [norfluoxetine, 3-(4-trifluoromethylphenoxy)-3-phenylpropylamine]
CB1 receptor [1]
  functional activity versus the CB1 receptor: antagonist

## Fc1ccc(C(OCCCc2c[nH]cn2)c2ccc(F)cc2)cc1 [compound 7]
CB1 receptor [4]
  inhibition of binding of [3H]CP 55,940: partially inhibited
CB1 receptor [5]; CB1 cell line, FIG. 4
  pA2 estimation using CP 55940 as an agonist: did not support an allosteric effect
CB1 receptor [5]; response relative to basal levels, FIG. 5
  antagonist versus inverse agonist activity in [35S]GTPγS binding: inverse agonist activity
CB2 receptor
  effect on the 2-AG dose response (Ca2+i) of CB2 receptor bearing cells: No effect
[6]
  effect on the 2-AG dose response (Ca2+i) of CB1 cells: right shift
CB1 receptor [7]
  effect on the dissociation rate of [3H]CP 55,940: no effect
[8]; mouse brain membrane, FIG. 7
  inhibition of agonist (CP 55940) binding: inhibited
  inhibition of antagonist/inverse agonist (SR 141716) binding: inhibited
[8]; mouse brain membranes, 0.75 nM radioligand, FIG. 6
  inhibition of binding of [3H]CP 55,940: almost fully inhibited
